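Protocol summary: plate cells (96-well), add compound at 5 concentrations, incubate 48 h, interpolate endpoints linearly. Here, GI50 denotes the concentration required for 50% inhibition of growth. At the TGI there is no net growth.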 Bounds are passed on as bounds.

Among the test systems are SK-MEL-2 melanoma; OVCAR-5 ovarian; HCC-2998 colon; MDA-N; UO-31 renal; SK-MEL-28 melanoma; RPMI-8226 leukemia; MOLT-4 leukemia; RXF 393 renal; SF-539 CNS.
What all share (experiment): NCI-60 cell line screen, 48 h

For the compound `CCOC(=O)N(Cc1cccs1)c1cc(OC)c(OC)c(OC)c1`, the TGI in the experiment with SK-MEL-2 melanoma was above 100 µM; in the experiment on OVCAR-5 ovarian, above 100 µM; in the experiment with HCC-2998 colon, above 100 µM; in the experiment with MDA-N it was 90.8 µM; with UO-31 renal, above 100 µM; in the experiment with SK-MEL-28 melanoma, above 100 µM. The TGI was 51.9 µM with RPMI-8226 leukemia, 36 µM in the experiment with MOLT-4 leukemia and above 100 µM in the experiment with RXF 393 renal.
In the case of `CCCNC(=O)c1cc(NC(=O)c2cc(NC(=O)/C=C/c3ccccc3)c(OC)c(OC)c2)c(OC)c(OC)c1`, the TGI in the experiment on SK-MEL-2 melanoma is 31.2 µM; in the experiment with OVCAR-5 ovarian it was 57.1 µM; in the experiment with MDA-N, above 100 µM; with UO-31 renal, 20.7 µM; in the experiment on SK-MEL-28 melanoma, 67.7 µM; in the experiment on RPMI-8226 leukemia, above 100 µM. Besides, the TGI in the experiment with MOLT-4 leukemia is above 100 µM; in the experiment on SF-539 CNS, 20.4 µM; in the experiment with RXF 393 renal, 8.31 µM.
In the case of `CCN(CC)CC(C)Nc1ccc([N+](=O)[O-])c2sc3ccccc3c(=O)c12` (centres undefined), the GI50 was 1.94 µM in the experiment with SK-MEL-2 melanoma; 3.63 µM in the experiment with OVCAR-5 ovarian; 2.21 µM with HCC-2998 colon; 1 µM in the experiment on UO-31 renal; 1.95 µM in the experiment on SK-MEL-28 melanoma; 2 µM in the experiment on SF-539 CNS. In addition, the GI50 in the experiment with RXF 393 renal was 1.65 µM. Further, the TGI in the experiment with SK-MEL-2 melanoma was 5.04 µM; with OVCAR-5 ovarian, above 100 µM; in the experiment on HCC-2998 colon, 11.9 µM; in the experiment on UO-31 renal, 3.29 µM; with SK-MEL-28 melanoma, 4.56 µM; in the experiment on SF-539 CNS, 7.56 µM. This compound returned a TGI with RXF 393 renal of 5.71 µM.
For `N=c1c2c(C(N)=O)cn(C3OC(CO)C(O)C3O)c2ncn1O` (centres undefined), the TGI with SK-MEL-2 melanoma is 2.33 µM; in the experiment with OVCAR-5 ovarian it was 1.3 µM; in the experiment with UO-31 renal, above 20.6 µM; in the experiment with SK-MEL-28 melanoma, 2.3 µM; in the experiment with MOLT-4 leukemia it was 0.491 µM; with SF-539 CNS it was 2.02 µM. Also, the TGI in the experiment on RXF 393 renal came to 3.71 µM.
`CCOC(=O)CSc1nc(N)c2c(-c3ccc(OC)c(OC)c3)c3c(nc2n1)CCCC3`: the TGI in the experiment on OVCAR-5 ovarian, in the experiment on MDA-N, in the experiment on UO-31 renal, in the experiment on SK-MEL-28 melanoma, in the experiment with RPMI-8226 leukemia and with MOLT-4 leukemia was above 100 µM throughout. Moreover, the TGI in the experiment on RXF 393 renal was above 100 µM.
Consider `CCOC(=O)C1(C(=O)OCC)Nc2cccnc2N(C)N1`, for which the TGI in the experiment on SK-MEL-2 melanoma was determined as 37 µM; in the experiment on MDA-N it was 35.4 µM; in the experiment with UO-31 renal, 31.8 µM; in the experiment with SK-MEL-28 melanoma, 93.8 µM; in the experiment with RPMI-8226 leukemia, 40.8 µM; in the experiment on MOLT-4 leukemia it was 55.3 µM. The TGI in the experiment on SF-539 CNS was 30.7 µM; in the experiment on RXF 393 renal, 33.3 µM.
As to `CN1CC[C@@]2(c3cccc(O)c3)CC(=O)/C(=C/c3ccccc3)[C@H]1C2`, the TGI in the experiment on SK-MEL-2 melanoma was determined as 87.2 µM; in the experiment with OVCAR-5 ovarian it was 32.2 µM; with HCC-2998 colon, 25 µM; with MDA-N, 16.4 µM; in the experiment with UO-31 renal, 25.5 µM; in the experiment on SK-MEL-28 melanoma, 29 µM. Further, the TGI is 7.04 µM in the experiment on RPMI-8226 leukemia, 6.21 µM in the experiment with MOLT-4 leukemia, 35.3 µM in the experiment with SF-539 CNS and 20.5 µM in the experiment with RXF 393 renal.
With `CCS(=O)(=O)Nc1ccc(Nc2c3ccccc3nc3ccccc23)c(OC)c1`, the TGI with SK-MEL-2 melanoma is 18.8 µM; in the experiment on OVCAR-5 ovarian, 19.4 µM; in the experiment with HCC-2998 colon it was 9.3 µM; with UO-31 renal, 6.34 µM; with SK-MEL-28 melanoma it was 15.4 µM; in the experiment on RPMI-8226 leukemia it was 8.24 µM. Moreover, the TGI with MOLT-4 leukemia amounted to 10.6 µM; with SF-539 CNS, 4.38 µM; with RXF 393 renal it was 9.6 µM.
For `N=C(N)c1ccc(-c2ccc(-c3cc(Cl)cc(Cl)c3)o2)nc1`, the GI50 was 2.09 µM in the experiment with SK-MEL-2 melanoma; 1.73 µM in the experiment with OVCAR-5 ovarian; 1.92 µM with HCC-2998 colon; 1.54 µM in the experiment on UO-31 renal; 1.8 µM with SK-MEL-28 melanoma; 2.03 µM in the experiment with RPMI-8226 leukemia. Besides, the GI50 was 2.46 µM in the experiment on MOLT-4 leukemia and 1.76 µM with SF-539 CNS. The TGI in the experiment with SK-MEL-2 melanoma was found to be 3.9 µM; in the experiment on OVCAR-5 ovarian it was 3.43 µM; in the experiment with HCC-2998 colon, 3.8 µM; in the experiment with UO-31 renal, 3.11 µM; in the experiment on SK-MEL-28 melanoma it was 3.59 µM; in the experiment with RPMI-8226 leukemia, 4.33 µM. Also, the TGI in the experiment with MOLT-4 leukemia was found to be 5.05 µM; in the experiment with SF-539 CNS, 3.25 µM.
On to `CCC1C(C#N)=C(N)OC2=C1C(=O)CC(C)(C)C2` (centres undefined), for which the TGI in the experiment with SK-MEL-2 melanoma, in the experiment on OVCAR-5 ovarian, in the experiment with HCC-2998 colon, in the experiment with MDA-N, in the experiment on SK-MEL-28 melanoma and in the experiment with RPMI-8226 leukemia was above 100 µM throughout. In addition, the TGI in the experiment on MOLT-4 leukemia and in the experiment on SF-539 CNS was above 100 µM throughout.
Consider `O=S(=O)(O)c1ccc2cccc(N=Nc3c(O)ccc4ccccc34)c2c1`, for which the TGI in the experiment with SK-MEL-2 melanoma, in the experiment with OVCAR-5 ovarian, in the experiment on HCC-2998 colon, in the experiment with MDA-N, with UO-31 renal and with MOLT-4 leukemia was above 100 µM throughout. Also, the TGI in the experiment on SF-539 CNS and in the experiment on RXF 393 renal was above 100 µM throughout.
As to `COc1cc(/C=C/C(=O)c2ccc(NS(=O)(=O)c3cc([N+](=O)[O-])ccc3C)cc2)cc(OC)c1OC`, the TGI worked out at 8.47 µM in the experiment on SK-MEL-2 melanoma; 11.8 µM in the experiment on OVCAR-5 ovarian; 13 µM in the experiment with MDA-N; 30.4 µM with UO-31 renal; 25 µM in the experiment on SK-MEL-28 melanoma; 6.21 µM in the experiment on RPMI-8226 leukemia. Besides, the TGI was determined as 6.58 µM with MOLT-4 leukemia, 6.3 µM in the experiment on SF-539 CNS and 11.1 µM in the experiment with RXF 393 renal.
`CC#CC#C/C=C1/O[C@]2(CCC(OC(C)=O)CO2)[C@@H]2O[C@H]12` (some centres undefined): the TGI is 40.5 µM in the experiment on SK-MEL-2 melanoma; 71.2 µM with OVCAR-5 ovarian; 33 µM in the experiment on HCC-2998 colon; above 100 µM in the experiment on MDA-N; 39 µM in the experiment on UO-31 renal; 75.2 µM in the experiment on RPMI-8226 leukemia. Further, the TGI with MOLT-4 leukemia stood at 57 µM; in the experiment on RXF 393 renal, 47.5 µM.
With `N=c1oc2c(Cl)cc(Cl)cc2cc1C(=O)Nc1cccc2ccccc12`, the TGI with OVCAR-5 ovarian is above 100 µM; in the experiment on HCC-2998 colon, above 59.6 µM; in the experiment on MDA-N, above 100 µM; with UO-31 renal it was above 40.9 µM; in the experiment with SK-MEL-28 melanoma it was above 100 µM; in the experiment with RPMI-8226 leukemia, 53.3 µM. In addition, the TGI in the experiment on MOLT-4 leukemia was above 37.5 µM; in the experiment with RXF 393 renal, 76.8 µM.
Take `COc1ccc2nc(-n3c(/C=C/c4ccccc4O)nc4ccccc4c3=O)sc2c1`: the TGI in the experiment on SK-MEL-2 melanoma was above 100 µM; in the experiment on OVCAR-5 ovarian it was above 100 µM; with HCC-2998 colon it was above 100 µM; with MDA-N, 36.5 µM; with UO-31 renal it was above 100 µM; in the experiment on SK-MEL-28 melanoma, above 100 µM. Also, the TGI in the experiment on RPMI-8226 leukemia was 80.8 µM; in the experiment on MOLT-4 leukemia it was above 100 µM; with RXF 393 renal, above 100 µM.
